From patent US20260085315A1, “POLYNUCLEOTIDE COMPOSITIONS AND METHODS FOR TREATMENT OF CANCER” (APTAH BIO, INC., priority 2023, published 2026) come the findings set out here.

The subject of series [1] is Human Glioblastoma Cancer (U-87MG) xenograft. Briefly: Histopathology of tumor samples with scoring. In kind it is in vivo, athymic nude mice. On the set-up: key: 1: Few; 2: Moderate; 3: Large. The note with it: individual animals; G3 APT20TTMG, G2 TMZ. From the text: (§1) The fixed tissues were processed for routine paraffin embedding followed by sectioning (3-6 micron). The sections were stained with hematoxylin and eosin. The prepared slides were examined under microscope by the study pathologist to record histopathological findings in tumor samples, related to capsule formation, cell type, connective tissue stroma, apoptosis, necrosis, lipid content, nucleus-to-cytoplasmic (N:C) ratio, nuclei mitotic figures, tumor grade, and level of differentiation. Each histopathological finding and tumor volume were assigned a score ranging from 1 to 4 (Table 7). The sum of these scores for each sample was used to infer the tumor aggressiveness.

For the next series, the system named is U87-MG cell line. Briefly: Apoptosis assay. The class given is cell-based, Human.
Series [2] deals with Human Glioblastoma Cancer (U-87MG) xenograft. Briefly: Histopathology of tumor samples with scoring. In kind it is in vivo, athymic nude mice. Details: key: 1: Minimal Fibrosis; 2: Mild Fibrosis; 3: Moderate Fibrosis; 4: Prominent. The note with it: individual animals; G3 APT20TTMG, G2 TMZ.
Description: as §1

Setting [3] is: two highest concentrations (0.5 and 1 μM).

Several values for one entry are separate records, joined by “and”; a condition that tells them apart may be missing. Equal values may be shown once. d = 2'-deoxy (DNA); m = 2'-O-methyl

With “APT20TTMG: engineered polynucleotide ASMO1, 24 nt, SEQ ID NO: 3 gtccactaacctttcaggccagcg; targeting moieties 5′-GTCCA-3′ and 5′-CG-3′, U1 snRNP recruiting moiety (GTCCACTAACCTTTCAGGCCAGCG; sugars from the 5' end m5 d14 m5, all phosphorothioate, methylation of C and T or U not given here)”, in series [1], the “Score: Mitotic figures” value is 1 (4×) and 3. Also, the late apoptosis result with U87-MG cell line (0.25 μM) was “trend toward this state”. Besides, in the series with U87-MG cell line (setting [3]), the late apoptosis result is “significantly marked for late apoptosis” and the “viable cells (apoptosis assay)” value is “reduce cell viability”. Further, the “Score: Necrosis” value in series [2] stood at 4.
